Earlier results, collected in patent US7300768B2 (Saladax Biomedical Inc., priority 2004, dated 2007).

Conditions: imatinib and its salts; Gleevec package insert, Pindolia et al.

degree of intra- and inter-individual pharmacokinetic variability: four fold
SMILES: Cc1ccc(NC(=O)c2ccc(CN3CCN(C)CC3)cc2)cc1Nc1nccc(-c2cccnc2)n1 [imatinib]
